Earlier results, collected in patent US7411005B2, “Compositions and methods for increasing milk production in animals” (Van Beek Natural Science, LLC, priority 2002, dated 2008).

Conditions: inactive metabolites after degradation by enzymes

For `Cc1ccc(C(C)C)cc1O` [isopropyl-o-cresol, 5-isopropyl-2-methylphenol], the “metabolites excreted in the urine” value is listed as “approx. 90%” and the “metabolites expired from the lungs in the form of CO2” value is listed as 10%.
For `Cc1ccc(C(C)C)c(O)c1` [isopropyl-cresol, 5-methyl-2[1-methylethyl]phenol], the “metabolites excreted in the urine” value is listed as “approx. 90%” and the “metabolites expired from the lungs in the form of CO2” value is listed as 10%.
